We go through 25 compounds from US20210246115A1 (Bioimics AB, priority 2017, published 2021).

≈ marks a conversion by molar mass, not a printed value. Structures can show the parent of a compound that is named as a salt.

Test [1] concerns Staphylococcus aureus (ATCC25923). Put plainly: MIC, broth microdilution (CLSI), Staphylococcus aureus ATCC25923. Conditions: Staphylococcus aureus, ATCC25923, read-out: S. aureus ATCC 25923 MIC. Background: In broth dilution the organism is exposed to a series of concentrations in liquid medium.
Method: Initial minimal inhibitory concentration (MIC) tests were made on two bacterial strains: • Escherichia coli (ATCC25922) • Staphylococcus aureus (ATCC25923).
MIC values were determined using the standard broth microdilution procedure based on the guidelines by the Clinical and Laboratory Standards Institute (CLSI). Briefly, the compounds were dissolved in DMSO to 10 mM. They were diluted in cation-adjusted Mueller-Hinton broth (CAMHB) to four times the highest concentration tested. A serial two-fold dilution in CAMHB was done in microdilution plates. The inoculum of bacterial strain to be tested was prepared by making a suspension of colonies from an 18 to 24 hours old plate in CAMHB. The inoculum was diluted so that, after inoculation, each well contained approximately 5×10^5 CFU/mL. To a volume of 50 μl compound in CA 3 an equal volume of inoculum was added. The tray was sealed in a plastic bag and incubated at 35° C. for 16 to 20 hours. To aid in the detection of growth the dye resazurin was added to a final concentration 0.001% and incubated at room temperature for 1 h. Reduction of resazurin, and therefore bacterial growth, was seen as a change from blue to pink.
Test [2] deals with E. coli RNase P RNA, M1 RNA. Put plainly: Inhibition of bacterial RNase P activity, IC50 determination (cleavage of pATSerUG by M1 RNA). Type of test: biochemical. The note with it: NI: No inhibition.
Test [3] concerns Escherichia coli (ATCC25922). The test is described as follows: MIC, broth microdilution (CLSI), Escherichia coli. The note with it: Escherichia coli, ATCC25922, read-out: E. coli ATCC 25922 MIC, Table XIII.

By MIC is commonly meant the lowest concentration that inhibits growth of the organism. Broadly, the IC50 is the concentration that gives 50% inhibition. In the case of `Cl.N[C@H]1CC[C@H](NC(=O)CCc2nn(CC3CCCCC3)c3ccc(Br)cc23)CC1` [Compound 270, N-((1r,4r)-4-aminocyclohexyl)-3-(5-bromo-1-(cyclohexylmethyl)-1H-indazol-3-yl)propanamide hydrochloride salt], the values for the MIC in test [1] and in test [3] were 64 µg/mL and 127 µg/mL, respectively. Also, in test [2], half-maximal inhibition (IC50) was put at 135 µM.

Regarding `NC1CCC(NC(=O)CC(c2cnc3ccccc3c2)c2cn(CC3CCCCC3)c3ccccc23)CC1` [Compound 142, N-((1S,4S)-4-aminocyclohexyl)-3-(1-(cyclohexylmethyl)-1H-indol-3-yl)-3-(quinolin-3-yl)propanamide hydrochloride salt], the values for the MIC in test [1] and in test [3] were 8 µg/mL and 32 µg/mL, respectively. Inhibition in test [2] was half-maximal at 44 µM (IC50).

For the compound `Cl.N[C@H]1CC[C@H](NC(=O)CC(c2cn(CC3CCCCC3)c3ccccc23)C2CCCCC2)CC1` (stereo partly drawn) [Compound 162, N-((1R,4R)-4-aminocyclohexyl)-3-cyclohexyl-3-(1-(cyclohexylmethyl)-1H-indol-3-yl)propanamide hydrochloride salt], the minimum inhibitory concentration (MIC) amounted to 4 µg/mL in test [1] and 32 µg/mL in test [3]. Moreover, the midpoint of inhibition in test [2], the IC50, lay at 9 µM.

As for `Cc1cccc(C(CC(=O)N2CCC(CN)CC2)c2cn(CC3CCCCC3)c3ccccc23)c1.Cl` (stereo not drawn) [Compound 167, 1-(4-(aminomethyl)piperidin-1-yl)-3-(1-(cyclohexylmethyl)-1H-indol-3-yl)-3-(m-tolyl)propan-1-one hydrochloride salt], the minimum inhibitory concentration (MIC) was determined as 8 µg/mL in test [1] and 65 µg/mL in test [3]. The compound also came in with an IC50 in test [2] of 14 µM.

For `Cl.O=C(CCc1cn(CC2CCCCC2)c2ccccc12)NCCC1CCNCC1` [Compound 117, 3-(1-(cyclohexylmethyl)-1H-indol-3-yl)-N-(2-(piperidin-4-yl)ethyl)propanamide hydrochloride salt], the MIC in test [1] and in test [3] was 256 µg/mL each time. The compound also yielded an IC50 in test [2] of 166 µM.

In the case of `CCOP(=O)(NC1CCC(NC(=O)CC(c2cccc(C)c2)c2cn(CC3CCCCC3)c3ccccc23)CC1)OCC` (stereo not drawn) [Compound 226, diethyl ((1s,4s)-4-(3-(1-(cyclohexylmethyl)-1H-indol-3-yl)-3-(m-tolyl)propanamido)cyclohexyl) phosphoramidate], the MIC in test [1] is 311 µg/mL (≈ 512 µM); in test [3], greater than 512 µg/mL. Besides, the IC50 in test [2] is 28.5 µM.

For `Cc1cccc(C(CC(=O)NC2CCC(N)CC2)c2cn(CC3CCNCC3)c3ccccc23)c1` [Compound 159, N-((1S,4S)-4-aminocyclohexyl)-3-(1-(piperidin-4-ylmethyl)-1H-indol-3-yl)-3-(m-tolyl)propanamide hydrochloride salt], the minimum inhibitory concentration (MIC) was 279 µg/mL in test [1] and greater than 512 µg/mL in test [3]. It took 210 µM to reach half-maximal inhibition in test [2] (IC50).

Take `Cc1cccc(C(CC(=O)NCCC2CCNCC2)c2cn(CCC3CCCCC3)c3ccccc23)c1.Cl` (stereo not drawn) [Compound 110, 3-(1-(2-cyclohexylethyl)-1H-indol-3-yl)-N-(2-(piperidin-4-yl)ethyl)-3-(m-tolyl)propanamide hydrochloride salt]: the MIC in test [1] is 4 µg/mL; in test [3], 64 µg/mL. The IC50 in test [2] turned out to be 5.6 µM.

Consider `Cl.N[C@H]1CC[C@H](NC(=O)CCc2cn(CC3CCCCC3)c3ccc(-c4ccccc4OC(F)(F)F)cc23)CC1` [Compound 231, N-((1R,4R)-4-aminocyclohexyl)-3-(1-(cyclohexylmethyl)-5-(2-(trifluoromethoxy)phenyl)-1H-indol-3-yl) propanamide hydrochloride salt], for which the MIC in test [1] is 5 µg/mL; in test [3], greater than 512 µg/mL. Besides, 4.4 µM corresponded to half-maximal inhibition in test [2] (IC50).

On to `FC1(F)CCC(Cn2cc(CCNC3CCNCC3)c3cc(Br)ccc32)CC1` [Compound 290, N-(2-(5-bromo-1-((4,4-difluorocyclohexyl)methyl)-1H-indol-3-yl)ethyl)piperidin-4-amine hydrochloride salt], for which the minimal inhibitory concentration (MIC) in test [1] and in test [3] was 17 µg/mL in each case. In addition, in test [2], half-maximal inhibition (IC50) was put at 61 µM.

As to `Cl.N[C@H]1CC[C@H](NC(=O)CC(c2cccc(C(F)(F)F)c2)c2cn(CC3CCCCC3)c3ccccc23)CC1` (stereo partly drawn) [Compound 129, N-((1R,4R)-4-aminocyclohexyl)-3-(1-(cyclohexylmethyl)-1H-indol-3-yl)-3-(3-(trifluoromethyl)phenyl) propanamide hydrochloride salt], the minimum inhibitory concentration (MIC) in test [1] was 4 µg/mL; in test [3], greater than 512 µg/mL. Moreover, the half-maximal inhibitory concentration (IC50) in test [2] came to 13 µM.

On to `Cc1cccc(C(CC(=O)N[C@H]2CC[C@H](N)CC2)c2cn(C(C)C3CCCCC3)c3ccccc23)c1.Cl` (stereo partly drawn) [Compound 299, N-((1r,4r)-4-aminocyclohexyl)-3-(1-(1-cyclohexylethyl)-1H-indol-3-yl)-3-(m-tolyl)propanamide hydrochloride salt], for which the minimal inhibitory concentration (MIC) in test [1] is 8 µg/mL; in test [3], 134 µg/mL. It took 32 µM to reach half-maximal inhibition in test [2] (IC50).

For the compound `COc1cc(C)cc(C(CC(=O)N[C@H]2CC[C@H](N)CC2)c2cn(CC3CCCCC3)c3ccccc23)c1.Cl` (stereo partly drawn) [Compound 133, N-((1R,4R)-4-aminocyclohexyl)-3-(1-(cyclohexylmethyl)-1H-indol-3-yl)-3-(3-methoxy-5-methylphenyl) propanamide hydrochloride salt], the minimum inhibitory concentration (MIC) in test [1] and in test [3] was greater than 512 µg/mL each time. The IC50 in test [2] was found to be 76 µM.

Consider `Cc1cccc(C(CC(=O)NC2CCC(NC(=N)N)CC2)c2cn(CC3CCCCC3)c3ccccc23)c1` (stereo not drawn) [Compound 201, 3-(1-(cyclohexylmethyl)-1H-indol-3-yl)-N-(4-guanidinocyclohexyl)-3-(m-tolyl) propanamide hydrochloride salt], for which the minimal inhibitory concentration (MIC) was 2 µg/mL in test [1] and 75 µg/mL in test [3]. Further, half-maximal inhibition in test [2] (IC50) was put at 15.4 µM.

As to `Cc1cccc(C(CC(=O)NC2CCNCC2)c2cn(CC3CCCCC3)c3ccc(F)cc23)c1.Cl` (stereo not drawn) [Compound 118, 3-(1-(cyclohexylmethyl)-5-fluoro-1H-indol-3-yl)-N-(piperidin-4-yl)-3-(m-tolyl)propanamide hydrochloride salt], the results for the MIC in test [1] and in test [3] were 8 µg/mL and 32 µg/mL, respectively. Besides, the IC50 in test [2] amounted to 39 µM.

For the compound `Cc1cccc(C(CC(=O)N[C@H]2CC[C@H](N)CC2)c2cn(CC3CCCCC3)c3ccc(F)cc23)c1.Cl` (stereo partly drawn) [Compound 125, N-((1R,4R)-4-aminocyclohexyl)-3-(1-(cyclohexylmethyl)-5-fluoro-1H-indol-3-yl)-3-(m-tolyl)propanamide hydrochloride salt], the MIC in test [1] was found to be 8 µg/mL; in test [3] it was 256 µg/mL. In test [2], this compound registered an IC50 of 29 µM.

Regarding `Cc1cccc(C(CCNC2CCNCC2)c2cn(CC3CCOCC3)c3ccccc23)c1` (stereo not drawn) [Compound 292, N-(3-(1-((tetrahydro-2H-pyran-4-yl)methyl)-1H-indol-3-yl)-3-(m-tolyl)propyl)piperidin-4-amine hydrochloride salt], the MIC in test [1] was 33 µg/mL; in test [3], 66 µg/mL. This compound also came in with an IC50 in test [2] of 130 µM.

For the compound `Cl.c1ccc2c(CCNCC3CCCC3)c[nH]c2c1` [Compound 20, N-(cyclopentylmethyl)-2-(1H-indol-3-yl)ethan-1-amine hydrochloride salt], the MIC in test [1] and in test [3] was greater than 512 µg/mL in each case. The compound also had an IC50 in test [2] of 4140 µM.

Turning to `Cc1cccc(C(CCNC2CCC(N)CC2)c2cn(CC3CCCCC3)c3ccc(Br)cc23)c1` [Compound 169, (1S,4S)-N1-(3-(5-bromo-1-(cyclohexylmethyl)-1H-indol-3-yl)-3-(m-tolyl)propyl)cyclohexane-1,4-diamine hydrochloride salt], the MIC in test [1] amounted to 2 µg/mL; in test [3] it was 5 µg/mL. In test [2], this compound had an IC50 of 21 µM.

With `Cc1cccc(C(CC(=O)NC2CCC(N)CC2)c2cn(CC3CCCCC3)c3cc(Br)ccc23)c1.Cl` [Compound 175, N-((1S,4S)-4-aminocyclohexyl)-3-(6-bromo-1-(cyclohexylmethyl)-1H-indol-3-yl)-3-(m-tolyl)propanamide hydrochloride salt], the MIC is 2 µg/mL in test [1] and greater than 512 µg/mL in test [3]. The IC50 in test [2] (hydrochloride salt) stood at 59 µM.

`N[C@H]1CC[C@H](NCCc2cn(CC3CCCCC3)c3ccc(Br)cc23)CC1` [Compound 197, (1R,4R)-N1-(2-(5-bromo-1-(cyclohexylmethyl)-1H-indol-3-yl)ethyl) cyclohexane-1,4-diamine hydrochloride salt]: the values for the minimum inhibitory concentration (MIC) in test [1] and in test [3] were 4 µg/mL and 8 µg/mL, respectively. Moreover, the IC50 in test [2] turned out to be 31 µM.

Regarding `Cc1cccc(C(CC(=O)NC2CCNCC2)c2cn(CC3CCCCC3)c3ccc(Br)cc23)c1.Cl` (stereo not drawn) [Compound 121, 3-(5-bromo-1-(cyclohexylmethyl)-1H-indol-3-yl)-N-(piperidin-4-yl)-3-(m-tolyl) propanamide hydrochloride salt], the figures for the MIC in test [1] and in test [3] were 8 µg/mL and 256 µg/mL, respectively. Further, the midpoint of inhibition in test [2], the IC50, lay at 8 µM.

`Cl.O=C(Cc1cn(CC2CCC(F)(F)CC2)c2ccc(Br)cc12)NC1CCNCC1` [Compound 277, 2-(5-bromo-1-((4,4-difluorocyclohexyl)methyl)-1H-indol-3-yl)-N-(piperidin-4-yl)acetamide hydrochloride salt]: the values for the minimum inhibitory concentration (MIC) in test [1] and in test [3] were 65 µg/mL and 129 µg/mL, respectively. This compound also gave a half-maximal inhibitory concentration (IC50) in test [2] of 229 µM.

For `Cc1cccc(C(CC(=O)N[C@H]2CC[C@H](N)CC2)c2cn(CC3CCCCC3)c3ccc(-c4ccccc4Cl)cc23)c1.Cl` (stereo partly drawn) [Compound 205, N-((1R,4R)-4-aminocyclohexyl)-3-(5-(2-chlorophenyl)-1-(cyclohexylmethyl)-1H-indol-3-yl)-3-(m-tolyl)propanamide hydrochloride salt], the minimum inhibitory concentration (MIC) in test [1] was 158 µg/mL; in test [3] it was greater than 512 µg/mL. In addition, the IC50 in test [2] is 3.2 µM.

`O=C(CC(c1cn(CC2CCCCC2)c2ccccc12)C1CCNCC1)NC1CCNCC1` (stereo not drawn) [Compound 106, 3-(1-(cyclohexylmethyl)-1H-indol-3-yl)-N,3-di(piperidin-4-yl)propanamide hydrochloride salt]: the MIC in test [1] and in test [3] was 512 µg/mL in each case. This compound also gave an IC50 in test [2] of 1220 µM.
